One assay deals with HCV replicon cells. The assay is described as follows: HCV replicon FRET assay. The format is cell-based. As to the method:
FRET Assay Preparation. The HCV FRET screening assay was performed in 96-well cell culture plates. The FRET peptide (Anaspec, Inc.) (Taliani et al., Anal. Biochem. 1996, 240, 60-67) contains a fluorescence donor, EDANS, near one end of the peptide and an acceptor, DABCYL, near the other end. The fluorescence of the peptide is quenched by […] resonance energy transfer (RET) between the donor and the acceptor, but as the NS3 protease cleaves the peptide the products are released from RET quenching and the fluorescence of the donor becomes apparent. The assay reagent was made as follows: 5× cell Luciferase cell culture lysis reagent from Promega (#E153A) diluted to 1× with dH2O, NaCl added to 150 mM final, the FRET peptide diluted to 20 μM final from a 2 mM stock.
To prepare plates, HCV replicon cells, with or without a Renilla luciferase reporter gene, were trypsinized and plated in a 96-well plate with titrated test compounds added in columns 3 through 12; columns 1 and 2 contained a control compound (HCV control inhibitor), and the bottom row contained cells with DMSO only. The plates were then placed in a CO2 incubator at 37° C.
Assays. Subsequent to addition of the test compounds described above (FRET Assay Preparation), at various times the plate was removed and Alamar blue solution (Trek Diagnostics, #00-100) was added to measure cellular toxicity. After reading in a Cytoflour 4000 instrument (PE Biosystems), plates were rinsed with PBS and then used for FRET assay by the addition of 30 ul of the FRET peptide assay reagent described above (FRET Assay Preparation) per well. The plate was then placed into the Cytoflour 4000 instrument which had been set to 340 excite/490 emission, automatic mode for up to 20 cycles and the plate read in a kinetic mode. Typically, the signal to noise using an endpoint analysis after the reads was at least three-fold. Alternatively, after Alamar blue reading, plates were rinsed with PBS, then used for luciferase assay using the Promega Dual-Glo Luciferase Assay System or the Promega EnduRen Live Cell Substrate assay.
Compound analysis was performed by quantification of the relative HCV replicon inhibition and the relative cytotoxicity values. To calculate cytoxicity values, the average Alamar Blue fluorescence signals from the control wells were set as 100% non-toxic. The individual signals in each of the compound test wells were then divided by the average control signal and multiplied by 100% to determine […]. To calculate the HCV replicon inhibition values, an average background value was obtained from the two wells containing the highest amount of HCV control inhibitor at the end of the assay period. These numbers were similar to those obtained from naïve Huh-7 cells. The background numbers were then subtracted from the average signal obtained from the control wells and this number was used as 100% activity. The individual signals in each of the compound test wells were then divided by the averaged control values after background subtraction and multiplied by 100% to determine percent activity. EC50 values were calculated as the concentration which caused a 50% reduction in FRET or luciferase activity. The two numbers generated for the compound plate, percent cytoxicity and percent activity, were used to determine compounds of interest for further analysis.

A further assay addresses T1, HCV NS5B (Hepatitis C virus genotype 1b, UniProt Q9WMX2).
T1 construct: The cDNA encoding the NS5B protein of HCV, genotype 1b; made in house; host or cells: E. coli BL21(DE3)
The assay is described as follows: Modified HCV NS5B RdRp enzyme assay (preincubation protocol). The format is biochemical. As to the method:
HCV NS5B RdRp cloning, expression, and purification. The cDNA encoding the NS5B protein of HCV, genotype 1b, was cloned into the pET21a expression vector. The protein was expressed with an 18 amino acid C-terminal truncation to enhance the solubility. The E. coli competent cell line BL21(DE3) was used for expression of the protein. Cultures were grown at 37° C. for ˜4 hours until the cultures reached an optical density of 2.0 at 600 nm. The cultures were cooled to 20° C. and induced with 1 mM IPTG. Fresh ampicillin was added to a final concentration of 50 μg/ml and the cells were grown overnight at 20° C.
Cell pellets (3L) were lysed for purification to yield 15-24 mgs of purified NS5B. The lysis buffer consisted of 20 mM Tris-HCl, pH 7.4, 500 mM NaCl, 0.5% triton X-100, 1 mM DTT, 1 mM EDTA, 20% glycerol, 0.5 mg/ml lysozyme, 10 mM MgCl2, 15 ug/ml deoxyribonuclease I, and Complete™ protease inhibitor tablets (Roche). After addition of the lysis buffer, frozen cell pellets were resuspended using a tissue homogenizer. To reduce the viscosity of the sample, aliquots of the lysate were sonicated on ice using a microtip attached to a Branson sonicator. The sonicated lysate was centrifuged at 100,000×g for 1 hr at 4° C. and filtered through a 0.2 μm filter unit (Corning).
The protein was purified using two sequential chromatography steps: Heparin sepharose CL-6B and polyU sepharose 4B (Pharmacia). The chromatography buffers were identical to the lysis buffer but contained no lysozyme, deoxyribonuclease I, MgCl2 or protease inhibitor and the NaCl concentration of the buffer was adjusted according to the requirements for charging the protein onto the column. Each column was eluted with a NaCl gradient which varied in length from 5-50 column volumes depending on the column type. After the final chromatography step, the resulting purity of the enzyme is >90% based on SDS-PAGE analysis. The enzyme was aliquoted and stored at −80° C.
Standard HCV NS5B RdRp enzyme assay. HCV RdRp genotype 1b assays were run in a final volume of 60 μl in 96 well plates (Corning 3600). The assay buffer is composed of 20 mM Hepes, pH 7.5, 2.5 mM KCl, 2.5 mM MgCl2, 1 mM DTT, 1.6 U RNAse inhibitor (Promega N2515), 0.01 mg/ml BSA (Sigma B6917), and 2% glycerol. All compounds were serially diluted (3-fold) in DMSO and diluted further in water such that the final concentration of DMSO in the assay was 2%. HCV RdRp genotype 1b enzyme was used at a final concentration of 28 nM. A polyA template was used at 6 nM, and a biotinylated oligo-dT12 primer was used at 180 nM final concentration. Template was obtained commercially (Amersham 27-4110). Biotinylated primer was prepared by Sigma Genosys. 3H-UTP was used at 0.6 μCi (0.29 μM total UTP). Reactions were initiated by the addition of enzyme, incubated at 30° C. for 60 min, and stopped by adding 25 μl of 50 mM EDTA containing SPA beads (4 μg/μl, Amersham RPNQ 0007). Plates were read on a Packard Top Count NXT after >1 hr incubation at room temperature.
Modified HCV NS5B RdRp enzyme assay. A modified enzyme assay was performed essentially as described for the standard enzyme assay except for the following: The biotinylated oligo dT12 primer was precaptured on streptavidin-coated SPA beads by mixing primer and beads in assay buffer and incubating at room temperature for one hour. Unbound primer was removed after centrifugation. The primer-bound beads were resuspended in 20 mM Hepes buffer, pH 7.5 and used in the assay at final concentrations of 20 nM primer and 0.67 μg/μl beads. Order of addition in the assay: enzyme (1.75 nM) was added to diluted compound followed by the addition of a mixture of template (0.36 nM), 3H-UTP (0.6 μCi, 0.29 μM), and primer-bound beads, to initiate the reaction; concentrations given are final. Reactions were allowed to proceed for 4 hours at 30° C.
IC50 values for compounds were determined using seven different [I]. […]

The structures appear in SMILES notation. Read-outs that look alike come from different tables or passages of the source.

As usually defined, the EC50 is the concentration at which the effect is half-maximal. Read a low EC50 as a more potent agent. As usually defined, the IC50 is the point on the concentration scale where inhibition reaches its midpoint. Lower therefore signals greater potency in that assay.

T1 sequence (Q9WMX2 2420-2992): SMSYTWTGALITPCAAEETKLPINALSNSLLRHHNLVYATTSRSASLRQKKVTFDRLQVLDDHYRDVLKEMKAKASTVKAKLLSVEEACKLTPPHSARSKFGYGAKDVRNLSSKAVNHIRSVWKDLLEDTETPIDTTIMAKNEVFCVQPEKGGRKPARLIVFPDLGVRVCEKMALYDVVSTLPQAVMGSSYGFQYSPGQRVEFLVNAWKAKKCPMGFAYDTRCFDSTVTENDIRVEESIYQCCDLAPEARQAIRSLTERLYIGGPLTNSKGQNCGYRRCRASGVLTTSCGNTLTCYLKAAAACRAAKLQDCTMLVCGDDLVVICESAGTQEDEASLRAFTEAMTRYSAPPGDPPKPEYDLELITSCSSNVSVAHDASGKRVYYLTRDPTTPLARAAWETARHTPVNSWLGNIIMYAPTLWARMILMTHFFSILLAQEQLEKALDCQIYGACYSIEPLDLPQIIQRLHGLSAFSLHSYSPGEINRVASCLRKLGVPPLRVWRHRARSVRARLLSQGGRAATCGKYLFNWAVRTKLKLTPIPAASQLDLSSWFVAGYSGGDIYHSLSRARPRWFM

The compound `COc1ccc2c(c1)C1CC1(C(=O)N1C3CCC1CC(N1CCCCC1)C3)Cn1c-2c(C2CCCCC2)c2ccc(C(=O)NS(=O)(=O)N(C)C)cc21` (centres unmarked) showed an EC50 in the assay with HCV replicon cells (Hepatitis C virus) of 4.58 to 500 nM. In addition, the IC50 at HCV NS5B fell in the range of 4.58 to 500 nM.

`COc1ccc2c(c1)C1CC1(C(=O)N1C3CCC1CC(N(CCN(C)C)Cc1ccccc1)C3)Cn1c-2c(C2CCCCC2)c2ccc(C(=O)NS(=O)(=O)N(C)C)cc21` (centres unmarked) came in with an EC50 with HCV replicon cells (Hepatitis C virus) of 4.58 to 500 nM. For the same compound, the IC50 at HCV NS5B was 4.58 to 500 nM.

In the case of `COc1ccc2c(c1)C1CC1(C(=O)N1C3CCC1CC(NCc1ccccc1)C3)Cn1c-2c(C2CCCCC2)c2ccc(C(=O)NS(=O)(=O)N(C)C)cc21` (centres unmarked), in the assay with HCV replicon cells (Hepatitis C virus), the EC50 lay in the range of 4.58 to 500 nM. Besides, the IC50 against HCV NS5B is 4.58 to 500 nM.

With `COc1ccc2c(c1)C1CC1(C(=O)N1C3CCC1CC(NC(C)C)C3)Cn1c-2c(C2CCCCC2)c2ccc(C(=O)NS(=O)(=O)N(C)C)cc21` (centres unmarked), the EC50 in the assay on HCV replicon cells (Hepatitis C virus) is 4.58 to 500 nM. Moreover, the IC50 on HCV NS5B was in the range of 4.58 to 500 nM.

In the case of `COc1ccc2c(c1)C1CC1(C(=O)N1C3CCC1CC(N(C)Cc1ccccc1)C3)Cn1c-2c(C2CCCCC2)c2ccc(C(=O)NS(=O)(=O)N(C)C)cc21` (centres unmarked), the EC50 in the assay with HCV replicon cells (Hepatitis C virus) is 4.58 to 500 nM. The compound also had an IC50 at HCV NS5B of 4.58 to 500 nM.

As for `COc1ccc2c(c1)C1CC1(C(=O)N1C3COCC1COC3)Cn1c-2c(C2CCCCC2)c2ccc(C(=O)NS(=O)(=O)CCC(F)(F)F)cc21` (centres unmarked), in the assay on HCV replicon cells (Hepatitis C virus), the EC50 lay within 4.58 to 500 nM. The IC50 at HCV NS5B lay within 4.58 to 500 nM.

Take `COc1ccc2c(c1)C1CC1(C(=O)N1C3COCC1COC3)Cn1c-2c(C2CCCCC2)c2ccc(C(=O)NS(=O)(=O)CC(C)C)cc21` (centres unmarked): in the assay on HCV replicon cells (Hepatitis C virus), the EC50 was in the range of 4.58 to 500 nM. For the same compound, on HCV NS5B, the IC50 is 4.58 to 500 nM.

Take `COc1ccc2c(c1)C1CC1(C(=O)N1C3CCC1CC(O)(C1CC1)C3)Cn1c-2c(C2CCCCC2)c2ccc(C(=O)NS(=O)(=O)N(C)C)cc21` (centres unmarked): the EC50 in the assay on HCV replicon cells (Hepatitis C virus) was in the range of 4.58 to 500 nM. This compound also registered an IC50 against HCV NS5B of 4.58 to 500 nM.

With `COc1ccc2c(c1)C1CC1(C(=O)N1C3CCC1CC(N(C)Cc1ccccc1)C3)Cn1c-2c(C2CCCCC2)c2ccc(C(=O)NS(=O)(=O)C(C)C)cc21` (centres unmarked) [drawing 56], the EC50 in the assay with HCV replicon cells (FRET assay) fell in the range of 4.58 to 500 nM. Also, at HCV NS5B (preincubation protocol), the IC50 fell in the range of 4.58 to 500 nM.

Turning to `COc1ccc2c(c1)C1CC1(C(=O)N1C3CCCC1COC3)Cn1c-2c(C2CCCCC2)c2ccc(C(=O)NS(=O)(=O)C3CCCCC3)cc21` (centres unmarked) [drawing 68], in the assay on HCV replicon cells (Hepatitis C virus), the EC50 is 4.58 to 500 nM. The same compound displayed an IC50 at HCV NS5B of 4.58 to 500 nM.

The record behind these values is patent US7541353B2, “Compounds for the treatment of hepatitis C” (Bristol-Myers Squibb Company, priority 2007, dated 2009).
